# According to article PMC11087268, “A folate inhibitor exploits metabolic differences in Pseudomonas aeruginosa for narrow-spectrum targeting” (Nature Microbiology, 2024):
# Where “and” joins values, the source holds several entries; their conditions need not be identical. Equal entries are not always repeated. Where two headings read alike, the source gives them in different places.
# Columns and labels:
# [1] = system: P. aeruginosa PA14; experiment: Growth competition assay, c.f.u. of P. aeruginosa PA14; assay type: cell-based, Pseudomonas aeruginosa
# Description: Cultures of each species were grown separately as well as being mixed 1:1. […] The number of colonies on Pseudomonas Selection Agar plates is reported as the c.f.u. ml^−1 of P. aeruginosa. To calculate c.f.u.s ml^−1 of E. coli MG1655, c.f.u.s ml^−1 were determined from LB agar plates and the c.f.u.s ml^−1 of P. aeruginosa were subtracted from these values.
# [2] = Haemolysis; assay type: cell-based, sheep; conditions: sheep, defibrinated sheep red blood cells, 1 h, vs Triton X-100 100% lysis
# Description: (§1) Samples were treated at 37 °C with shaking for 1 h and then centrifuged. Supernatants were collected and absorbances were measured at 405 nm in a Tecan InfiniteM200 Pro microplate reader.
# [3] = system: sheep red blood cells; experiment: Haemolysis; assay type: cell-based; conditions: biologically relevant concentrations
# Description: as §1
# [4] = system: Enterobacter cloacae ATCC BAA-1143; experiment: MIC against E. cloacae in LB broth; assay type: cell-based; conditions: ATCCBAA1143, 16 h
# Description: Overnight cultures were diluted 1:150 in LB broth and added to a 96-well plate. Antibiotics were serially diluted 1:2 and added to columns of the 96-well plate and grown at 37 °C with continuous shaking. Cell growth was measured using optical density at 600 nm (OD600). MIC assays were performed in either BioTek Synergy HT or Tecan InfiniteM200 Pro microplate readers.
# [5] = Pharmacokinetic analysis after single oral dose; assay type: in vivo, mouse
# Description: For pharmacokinetics determination, care and handling of male CD-1 mice approximately 6–8 weeks old conformed to institutional animal care and use policies as carried out at Pharmaron.
# Pharmacokinetic properties were determined after a single dose of 200 mg kg^−1 fluorofolin given orally (PO). Plasma samples were taken from three mice at times 0.083, 0.25, 0.5, 1, 2, 4, 8 and 24 h, and quantitative analysis was performed using LC–MS/MS. Half-life was determined from plasma concentration after fluorofolin levels reached pseudo-equilibrium (4 h for mouse 1 and 2, and 2 h for mouse 3). Pharmacokinetic values were estimated using a non-compartmental model generated from WinNonlin 6.1. Pharmacokinetic analysis was carried out by Pharmaron.
# [6] = system: P. aeruginosa clinical isolates; assay type: cell-based, Pseudomonas aeruginosa
# Description: Percent growth was calculated by dividing the OD600 of fluorofolin antibiotic-treated wells by that of vehicle-only wells.
# [7] = molecular target: T1, E. coli DHFR (FolA) (Escherichia coli, UniProt P0ABQ4); experiment: In vitro DHFR activity, purified E. coli FolA; assay type: biochemical; conditions: for fractional initial velocity: E. coli FolA
# T1 construct: purchased Genscript
# Description: As described previously, purified E. coli dihydrofolate reductase (FolA) was purified by Genscript. Enzyme activity was measured on a QuantaMaster 40 spectrophotometer (Photon Technology) using the DHFR reductase assay kit with slight modifications. E. coli FolA was diluted 1:1,000 into 1× assay buffer. Of this mixture, 100 μl with or without compound was added to a BRAND UV cuvette (Sigma-Aldrich BR759200) and sample transmitted light intensity at 340 nm was measured for 100 s at 1 kHz sampling. Readings were averaged for every 1 Hz and the activity of each sample was calculated from the slope (β) of a linear regression of the log-transformed intensity measurements on MATLAB R2022B. To account for enzyme stability, measurements were normalized to a standard condition (60 μM NADPH and 100 μM DHF) measured immediately before the sample of interest. The relative activity was calculated as (βsample − βnoEnzyme)/(βstandard − βnoEnzyme).
# [8] = CD-1 mice, 200 mg/kg PO, mean of three mice
# [9] = male, mouse, plasma, CD-1 mice, 200 mg/kg PO, mean of three mice
# T1 sequence (P0ABQ4 whole entry): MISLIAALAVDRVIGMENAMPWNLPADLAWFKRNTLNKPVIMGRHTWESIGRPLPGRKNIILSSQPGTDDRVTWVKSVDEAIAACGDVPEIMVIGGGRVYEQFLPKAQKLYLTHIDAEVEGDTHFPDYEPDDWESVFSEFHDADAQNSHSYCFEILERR
smiles,measurement,setting,value
Nc1nc(N)c2c(ccc3c2ccn3Cc2ccnc(F)c2)n1 [fluorofolin],growth in co-culture with TMI supplementation,"[1]; PA14 : E. coli MG1655 1:1, 50 μg ml^−1 fluorofolin, selective plating",selectively inhibited the growth of P. aeruginosa
same,P. Aeruginosa PA14 CFU/mL,"[1]; Panel C, Fluorofolin",39 CFU/mL and 46 CFU/mL and 40 CFU/mL
same,"hemolysis at 1 h, 0.78125 ug/mL",[2]; 0.78125 ug/mL,0.966%
same,"hemolysis at 1 h, 1.5625 ug/mL",[2]; 1.5625 ug/mL,0.655%
same,"hemolysis at 1 h, 3.125 ug/mL",[2]; 3.125 ug/mL,-0.334%
same,"hemolysis at 1 h, 6.25 ug/mL",[2]; 6.25 ug/mL,0.353%
same,"hemolysis at 1 h, 12.5 ug/mL",[2]; 12.5 ug/mL,-0.799%
same,"hemolysis at 1 h, 25 ug/mL",[2]; 25 ug/mL,-0.239%
same,"hemolysis at 1 h, 50 ug/mL",[2]; 50 ug/mL,13.7%
same,permeabilization of red blood cell membranes,[3],did not cause significant permeabilization
same,MIC,[4],12.5 µg/mL
same,plasma concentration,"[5]; 0.083 h after 200 mg kg^−1 PO, one value per mouse",1290 ng/mL and 1470 ng/mL
same,plasma concentration,"[5]; 0.25 h after 200 mg kg^−1 PO, one value per mouse",2880 ng/mL and 2500 ng/mL
same,plasma concentration,"[5]; 0.5 h after 200 mg kg^−1 PO, one value per mouse",3070 ng/mL and 2970 ng/mL
same,plasma concentration,"[5]; 1 h after 200 mg kg^−1 PO, one value per mouse",3980 ng/mL and 3260 ng/mL
same,plasma concentration,"[5]; 2 h after 200 mg kg^−1 PO, one value per mouse",4080 ng/mL and 3760 ng/mL
same,plasma concentration,"[5]; 4 h after 200 mg kg^−1 PO, one value per mouse",4460 ng/mL and 3060 ng/mL
same,plasma concentration,"[5]; 8 h after 200 mg kg^−1 PO, one value per mouse",2580 ng/mL and 1400 ng/mL
same,plasma concentration,"[5]; 24 h after 200 mg kg^−1 PO, one value per mouse",430 ng/mL and 287 ng/mL and 1740 ng/mL
same,AUC_% Extrap_obs,[5]; [8],23.3970%
same,AUC_last/D,[5]; [8],231.6700 h*ng/mL per mg/kg
same,T1/2,"[5]; CD-1 mice, 200 mg/kg PO, mean of three mice, 200 mg/kg",12.1050 h
same,concentration at 0.083 h,"[5]; male, CD-1, mouse, plasma, po, 200 mg kg^−1, 0.083 h after 200 mg kg^−1 PO, one value per mouse",880 ng/mL
same,concentration at 0.25 h,"[5]; male, CD-1, mouse, plasma, po, 200 mg kg^−1, 0.25 h after 200 mg kg^−1 PO, one value per mouse",2220 ng/mL
same,concentration at 0.5 h,"[5]; male, CD-1, mouse, plasma, po, 200 mg kg^−1, 0.5 h after 200 mg kg^−1 PO, one value per mouse",2810 ng/mL
same,concentration at 1 h,"[5]; male, CD-1, mouse, plasma, po, 200 mg kg^−1, 1 h after 200 mg kg^−1 PO, one value per mouse",2930 ng/mL
same,concentration at 2 h,"[5]; male, CD-1, mouse, plasma, po, 200 mg kg^−1, 2 h after 200 mg kg^−1 PO, one value per mouse",3640 ng/mL
same,concentration at 4 h,"[5]; male, CD-1, mouse, plasma, po, 200 mg kg^−1, 4 h after 200 mg kg^−1 PO, one value per mouse",3460 ng/mL
same,concentration at 8 h,"[5]; male, CD-1, mouse, plasma, po, 200 mg kg^−1, 8 h after 200 mg kg^−1 PO, one value per mouse",1640 ng/mL
same,half-life,"[5]; male, CD-1, mouse, plasma, po, 200 mg/kg, CD-1 mice, 200 mg/kg PO, mean of three mice",726 min
same,AUC(0-inf),[5]; [9],68800 ng·h/mL
same,AUC(0-t),[5]; [9],46300 ng·h/mL
same,Cmax,[5]; [9],3950 ng/mL
same,Tmax,[5]; [9],2.67 h
same,MRT inf,"[5]; male, mouse, plasma, CD-1 mice, 200 mg/kg PO, mean of three mice, read-out: MRT_Inf_obs",18.2 h
same,peak concentration,"[5]; mice, oral administration",4.0 µg/mL
same,isolates inhibited,[6],90%
same,number of isolates inhibited,[6],69
same,sensitivity of isolates with dfrB2,[6],fluorofolin-sensitive
same,number of resistant isolates,"[6]; 22 blood isolates, 50 μg ml^−1",None
same,number of resistant isolates,"[6]; 55 CDC isolates, 50 μg ml^−1",8
same,clinical isolates resistant,"[6]; 77 P. aeruginosa clinical isolates (55 CDC/FDA, 22 blood), 50 μg ml^−1, growth inhibition >80% = sensitive",10.4%
same,sensitivity of carbapenemase isolates,[6]; clinical isolates expressing KPC-5 and NDM-1,remained sensitive
same,clinical isolates resistant,"[6]; earlier manuscript version quoted by reviewers, antibiotic resistance isolate bank only",14.5%
same,IC50,[7],2.5 ± 1.1 nM
same,fractional initial velocity,[7]; Fluorofolin 9.91e-5 uM,1.007
same,fractional initial velocity,[7]; Fluorofolin 0.000507393 uM,1.009
same,fractional initial velocity,[7]; Fluorofolin 0.000792664 uM,0.7937
same,fractional initial velocity,[7]; Fluorofolin 0.00101479 uM,0.7819
same,fractional initial velocity,[7]; Fluorofolin 0.00152192 uM,0.9341
same,fractional initial velocity,[7]; Fluorofolin 0.00158533 uM,0.5604
same,fractional initial velocity,[7]; Fluorofolin 0.00202957 uM,0.702
same,fractional initial velocity,[7]; Fluorofolin 0.00405914 uM,0.5491
same,fractional initial velocity,[7]; Fluorofolin 0.00608766 uM,0.1317
same,fractional initial velocity,[7]; Fluorofolin 0.00634131 uM,0.5169
same,fractional initial velocity,[7]; Fluorofolin 0.00811828 uM,0.197
same,fractional initial velocity,[7]; Fluorofolin 0.0121753 uM,0.07555
same,fractional initial velocity,[7]; Fluorofolin 0.0126826 uM,0.0002002
same,fractional initial velocity,[7]; Fluorofolin 0.0162366 uM,0.3634
same,fractional initial velocity,[7]; Fluorofolin 0.0253653 uM,0.0004461
same,fractional initial velocity,[7]; Fluorofolin 0.0324731 uM,-0.0327
